The target of series [1] is T1, bovine thrombin (Bos taurus, UniProt P00735).
T1 construct: purchased Mochida Co., Ltd
The series is described as follows: Antithrombin activity: coagulation inhibition of rat plasma. In kind it is biochemical. The method, then: (ii) The measuring method for coagulation inhibition of rat plasma The compound of the present invention is dissolved in water or saline to form a solution of a total volume of 0.1 ml. To the solution, 0.1 ml of rat plasma is added and the mixture is incubated at 37° C. for 30 seconds. Then, 0.1 ml of bovine thrombin (8 units/ml, Mochida Co., Ltd.) is added and the coagulation time is measured at 37° C. The concentration of the inhibitor (i.e., the compound of the present invention) which doubles the coagulation time that obtained in the absence of the inhibitor was determined as I50 (μm).

A further series addresses T2, bovine trypsin (Bos taurus, UniProt P00760).
T2 construct: purchased Sigma Co
T2 sequence (P00760 24-246): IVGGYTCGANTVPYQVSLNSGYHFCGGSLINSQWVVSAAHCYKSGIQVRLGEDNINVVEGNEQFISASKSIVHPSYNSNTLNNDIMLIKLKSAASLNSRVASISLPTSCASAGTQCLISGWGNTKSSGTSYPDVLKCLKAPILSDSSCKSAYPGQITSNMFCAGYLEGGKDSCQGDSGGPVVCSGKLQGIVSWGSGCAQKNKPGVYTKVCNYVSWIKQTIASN
The experiment in a line: Antitrypsin activity: hydrolysis inhibition of synthetic substrate (S-2222). In kind it is biochemical. As to conditions: S-2222 substrate, pH 8.3, 37° C., absorbance 405 nm, read-out: Antitrypsin activity I50. The method, then: Determination of Antitrypsin activity
(i) The measuring method for hydrolysis inhibition of synthetic substrate (S-2222)
S-2222 (manufactured by Kabi Co.) is dissolved in a Tris hydrochloric acid (pH: 8.3) to prepare a S-2222-0.4M Tris hydrochloric acid solution having a concentration of 400 μm. To the solution (175 μl), 515 μl of a solution of a compound of the present invention is added. After incubating at 37° C. for one minute, 10 μl of a bovine trypsin solution (1 to 2 mg/ml, manufactured by Sigma Co.) is added. A hydrolysis reaction rate of the substrate is determined by measuring a change in absorbance of 405 nm at 37° C.

In series [2] the target is T1, bovine thrombin. The series is described as follows: Antithrombin activity: hydrolysis inhibition of synthetic substrate (S-2238). It counts as biochemical. As to the method: Determination of antithrombin activity
(i) The measuring method for hydrolysis inhibition of synthetic substrate (S-2238)
S-2238 (manufactured by Kabi Co.) is dissolved in a Tris hydrochloric acid buffer solution (pH: 8.3) to prepare a S-2238-0.4M Tris hydrochloric acid solution having a concentration of 80 μm. To 175 μl of the solution, an aqueous solution of a compound of the present invention (515 μl) is added. After incubating at 37° C. for one minute, 10 μl of a bovine thrombin solution (4.4 units/ml, manufactured by Mochida Co., Ltd.) is added. A hydrolysis reaction rate of the substrate is determined by measuring a change in absorbance of 405 nm at 37° C.

The conditions of series [3]: J. Med. Chem., 33, 1729 (1990); cited from earlier work.

Each structure is given as a SMILES string.

Take `N[C@H]1CC[C@H](CNC(=O)[C@@H]2CCCN2C(=O)[C@H](O)C2CCCCC2)CC1` [compound 61]: the IC50 against bovine thrombin [1] amounted to 0.056 µM.

`COC(=O)c1ccc(CC[C@@H](NS(C)(=O)=O)C(=O)N2CCC[C@H]2C(=O)NCc2ccc(C(=N)N)cc2)cc1` [compound 8] yielded an IC50 at bovine thrombin [1] of 0.122 µM.

As to `CCOC(=O)N[C@H](CC(C)(C)C)C(=O)N1CCC[C@H]1C(=O)NC[C@H]1CC[C@H](C(=N)N)CC1` [compound 15], the IC50 against bovine thrombin [1] was 0.038 µM; on bovine trypsin, 2.2 µM; against bovine thrombin [2], 0.011 µM.

As for `CCCC[C@@H](NS(C)(=O)=O)C(=O)N1CCC[C@H]1C(=O)NCc1ccc(C(=N)N)cc1` [compound 7], the IC50 against bovine thrombin [1] turned out to be 0.03 µM.

Molecule `CC(C)C[C@@H](NS(C)(=O)=O)C(=O)N1CCC[C@H]1C(=O)NC[C@H]1CC[C@H](C(=N)N)CC1` [compound 19] showed an IC50 against bovine thrombin [1] of 0.031 µM.

At bovine thrombin [1], `CC(C)(C)C[C@@H](NS(C)(=O)=O)C(=O)N1CCC[C@H]1C(=O)NCc1ccc(C(=N)N)cc1` [compound 2] displayed an IC50 of 0.03 µM.

Take `CCOC(=O)N[C@H](Cc1ccccc1)C(=O)N1CCC[C@H]1C(=O)NC[C@H]1CC[C@H](N)CC1` [compound 57]: at bovine thrombin [1], the IC50 came out at 0.082 µM.

In turn, `CCCCC[C@@H](NS(=O)(=O)CC(=O)O)C(=O)N1CCC[C@H]1C(=O)NCc1ccc(C(=N)N)cc1` [compound 12] returned an IC50 against bovine thrombin [1] of 0.083 µM.

On to `CC(C)(C)C[C@@H](NC(=O)OC(C)(C)C)C(=O)N1CCC[C@H]1C(=O)NC[C@H]1CC[C@H](C(=N)N)CC1` [compound 23], for which the values for the IC50 against bovine thrombin [1], on bovine trypsin and against bovine thrombin [2] were 0.058 µM, 3.6 µM and 0.017 µM, respectively.

Regarding `N=C(N)c1ccc(CNC(=O)[C@@H]2CCCN2C(=O)CCCc2ccccc2)cc1` [compound 13], the results for the IC50 at bovine thrombin [1] and against bovine thrombin [2] were 0.59 µM and 0.72 µM, respectively.

With `CCOC(=O)N[C@H](CC(CC)CC)C(=O)N1CCC[C@H]1C(=O)NC[C@H]1CC[C@H](C(=N)N)CC1` [compound 22], the results for the IC50 at bovine trypsin and on bovine thrombin [2] were 0.94 µM and 0.014 µM, respectively.

As for `CCOC(=O)N[C@H](CC1CCCCC1)C(=O)N1CCC[C@H]1C(=O)NC[C@H]1CC[C@H](C(=N)N)CC1` [compound 16], the IC50 was found to be 1.7 µM at bovine trypsin and 0.021 µM against bovine thrombin [2].

As to `CC(C)OC(=O)N[C@H](CC(C)(C)C)C(=O)N1CCC[C@H]1C(=O)NC[C@H]1CC[C@H](C(=N)N)CC1` [compound 17], the IC50 amounted to 0.053 µM at bovine thrombin [1], 3.2 µM on bovine trypsin and 0.015 µM against bovine thrombin [2].

`NC(=NO)c1ccc(CNC(=O)[C@@H]2CCCN2C(=O)Cc2ccccc2)cc1` [compound 25]: the IC50 at bovine thrombin [1] was over 300 µM.

In the case of `CS(=O)(=O)N[C@@H](C(=O)N1CCC[C@H]1C(=O)NC[C@H]1CC[C@H](N)CC1)C1CCCCC1` [compound 53], the IC50 against bovine thrombin [1] was 0.059 µM; at bovine trypsin, 1.4 µM; on bovine thrombin [2] it was 0.081 µM.

At bovine thrombin [1], `CS(=O)(=O)N[C@H](CC1CCCCC1)C(=O)N1CCC[C@H]1C(=O)NC[C@H]1CC[C@H](C(=N)N)CC1` [compound 20] displayed an IC50 of 0.028 µM.

For `CS(=O)(=O)N[C@@H](C(=O)N1CCC[C@H]1C(=O)NCc1ccc(C(=N)N)cc1)C1CCCCC1` [compound 1], the IC50 on bovine thrombin [1] is 0.046 µM.

Molecule `CCOC(=O)N[C@H](CC(C)(C)C)C(=O)N1CCC[C@H]1C(=O)NC[C@H]1CC[C@H](N)CC1` [compound 64] gave an IC50 against bovine thrombin [1] of 0.13 µM.

`CS(=O)(=O)N[C@H](Cc1ccccc1)C(=O)N1CCC[C@H]1C(=O)NC[C@H]1CC[C@H](N)CC1` [compound 52]: the values for the IC50 against bovine thrombin [1], on bovine trypsin and at bovine thrombin [2] were 0.045 µM, 14 µM and 0.13 µM, respectively.

Take `N[C@H]1CC[C@H](CNC(=O)[C@@H]2CCCN2C(=O)[C@H](O)c2ccccc2)CC1` [compound 62]: at bovine thrombin [1], the IC50 stood at 0.088 µM.

As to `CSCC[C@@H](NS(C)(=O)=O)C(=O)N1CCC[C@H]1C(=O)NCc1ccc(C(=N)N)cc1` [compound 5], the IC50 at bovine thrombin [1] was 0.048 µM.

For `CC(C)OC(=O)N[C@H](CC(C)(C)C)C(=O)N1CCC[C@H]1C(=O)NC[C@H]1CC[C@H](N)CC1` [compound 56], the figures for the IC50 against bovine thrombin [1], on bovine trypsin and on bovine thrombin [2] were 0.08 µM, 14 µM and 0.13 µM, respectively.

Turning to `N[C@H]1CC[C@H](CNC(=O)[C@@H]2CCCN2C(=O)[C@H](CCC(=O)O)NS(=O)(=O)c2ccccc2)CC1` [compound 54], the IC50 on bovine thrombin [1] amounted to 0.23 µM.

`CS(=O)(=O)N[C@H](COc1cccc(C(=O)O)c1)C(=O)N1CCC[C@H]1C(=O)NCc1ccc(C(=N)N)cc1` [compound 9] gave an IC50 against bovine thrombin [1] of 0.11 µM.

With `CS(=O)(=O)N[C@H](Cc1ccccc1)C(=O)N1CCC[C@H]1C(=O)NC[C@H]1CC[C@H](NC(=N)N)CC1` [compound 67], the IC50 amounted to 0.081 µM on bovine thrombin [1], 20 µM at bovine trypsin and 0.56 µM at bovine thrombin [2].

`N=C(N)c1ccc(CNC(=O)[C@@H]2CCCN2C(=O)[C@@H](Cc2ccccc2)NC=O)cc1` [compound 6]: the IC50 on bovine thrombin [1] is 0.056 µM.

Turning to `CS(=O)(=O)N[C@H](Cc1ccccc1)C(=O)N1CCC[C@H]1C(=O)NCc1ccc(C(=N)N)cc1` [compound 4], the IC50 against bovine thrombin [1] turned out to be 0.021 µM; on bovine trypsin, 0.04 µM; against bovine thrombin [2] it was 0.0076 µM.

Turning to `CC(C)OC(=O)N[C@@H](C(=O)N1CCC[C@H]1C(=O)NC[C@H]1CC[C@H](C(=N)N)CC1)C1CCCCC1` [compound 21], the IC50 on bovine trypsin turned out to be 1 µM; on bovine thrombin [2] it was 0.021 µM.

`CS(=O)(=O)N[C@H](COc1ccccc1C(=O)OCc1ccccc1)C(=O)N1CCC[C@H]1C(=O)NCc1ccc(C(=N)N)cc1` [compound 10]: the IC50 against bovine thrombin [1] stood at 0.17 µM.

For the molecule `N[C@H](Cc1ccccc1)C(=O)N1CCC[C@H]1C(=O)NC[C@H]1CC[C@H](N)CC1` [compound 58], the IC50 against bovine thrombin [1] is 0.097 µM.

As to `N=C(N)NCCC[C@@H](C=O)NC(=O)[C@@H]1CCCN1C(=O)[C@H](N)Cc1ccccc1` [D-phenylalanyl-L-prolyl-L-arginal], in series [3], the “stability in the living body” value is “fairly unstable”.
